Laboratory results from patent publication US9329184B2, “Fluorescent probe” (THE UNIVERSITY OF TOKYO, priority 2011, dated 2016).

Assays:
[1] = test system: leucine aminopeptidase; assay: Reaction of fluorescent probe with leucine aminopeptidase (absorption/fluorescence before and after); format: biochemical; details: for absorption maximum wavelength: 0.1 M sodium phosphate buffer pH 7.4, 37° C., before/after reaction with leucine aminopeptidase
Method: (§1) Fluorescence was measured with an excitation wavelength of 593 nm.
Function of Leu-SiR600 as a fluorescent probe was evaluated by reacting it with leucine aminopeptidase. Leucine aminopeptidase (0.096 unit) was added to Leu-SiR600 (6 μM), and the mixture was reacted for 2.5 hours. The reaction performed at 37° C. in a 0.1 M sodium phosphate buffer (pH 7.4, 0.75 ml) containing 0.8% DMSO. The absorption spectra and fluorescence spectra observed before and after the reaction are shown in FIG. 7, (b) and (c), respectively.

[2] = Absorption and fluorescence spectra and pH profiles in sodium phosphate buffer; format: physicochemical; details: for pH-dependent change of absorbance / λabs / λfl: 0.1 M sodium phosphate buffer containing 1% DMSO; for pH-dependent change of absorbance: pH profile; for λabs / λfl: Table 1
Method: as §1
Fluorescence was measured with an excitation wavelength of 505 nm.
Fluorescence was measured with an excitation wavelength of 590 nm.
Absorption and fluorescence spectra as well as pH profiles of 2-Me SiR600 and the acetylated compound thereof (N-Ac-2-Me SiR600) synthesized in Example 2 were measured. […] Therefore, 2-Me SiR600 in which the amino group at the 3-position is acylated can be functioned as a fluorescent probe for detecting enzymatic activity on the basis of absorption wavelength change with a high S/N ratio, without using the intramolecular photoinduced electron transfer.
In a similar manner, absorption and fluorescence spectra as well as pH profiles of 2-COOH SiR600 and the acetylated compound thereof were measured. […] Therefore, it can be used as a fluorescent probe as shown in the following scheme.
Absorption spectrum of Z-DEVD-SiR600 was measured in a 0.1 M sodium phosphate buffer of pH 3 to 10 containing 1% DMSO. The measurement results are shown in FIG. 5, and the photochemical characteristics are shown in Table 3 mentioned below together with the results for SiR600.

[3] = test system: caspase-3; assay: Reaction of fluorescent probe with caspase-3 (absorption/fluorescence before and after); format: biochemical; details: for absorption maximum wavelength: 20 mM HEPES buffer pH 7.4, 37° C., before/after reaction with caspase-3
Method: as §1
Function of Z-DEVD-SiR600 as a fluorescent probe was evaluated by reacting it with caspase-3. Caspase-3 (0.5 μg) was added to Z-DEVD-SiR600 (2 μM), and the mixture was reacted for 10 hours. The reaction was performed at 37° C. in a 20 mM HEPES buffer (pH 7.4, 0.75 ml) containing 100 μM dithiothreitol (DTT), 10% glycerol, 0.1% CHAPS, 100 mM NaCl, and 0.1% DMSO. The absorption spectra and fluorescence spectra observed before and after the reaction (excitation wavelengths are shown in FIG. 6, (b) and (c), respectively, and the kinetics parameters of the reaction are shown in FIG. 6, (d)).

Compound: Cc1ccccc1C1=C2C=CC(=N)C=C2[Si](C)(C)c2cc(N)ccc21 [2-Me SiR600]
- absorption maximum wavelength [1]: 593 nm
- pH-dependent change of absorbance [2]: did not substantially show pH-dependent change of absorbance
- maximum absorption wavelength ([2]; Example 4): 593 nm
- λabs [2]: 593 nm
- λfl [2]: 613 nm
- ΦFL ([2]; Table 3, pH 7.4): 0.38
- ε ([2]; Table 3, pH 7.4): 91000 M⁻¹ cm⁻¹
- λem ([2]; Table 3, pH 7.4): 613 nm
- λex ([2]; Table 3, pH 7.4): 593 nm
- absorption maximum wavelength [3]: 593 nm

Compound: C[Si]1(C)c2cc(N)ccc2C2(OC(=O)c3ccccc32)c2ccc(N)cc21 [2-COOH SiR600]
- pH-dependent change of absorbance [2]: did not substantially show absorbance change at pH higher than the physiological pH region
- ΦFL ([2]; Table 2, pH 7.4): 0.26
- ε ([2]; Table 2, pH 7.4): 4000 M⁻¹ cm⁻¹
- λem ([2]; Table 2, pH 7.4): 610 nm
- λex ([2]; Table 2, pH 7.4): 590 nm

Compound: CC(=O)Nc1ccc2c(c1)[Si](C)(C)c1cc(N)ccc1C21OC(=O)c2ccccc21 (stereo not drawn) [N-Acetyl-2-COOH SiR600]
- absorption for the visible region ([2]; physiological pH range): not to show absorption for the visible region in the physiological pH range

Compound: Z-DEVD-SiR600
- pH-dependent change of absorbance [2]: showed pH-dependent absorbance change
- ΦFL ([2]; Table 3, pH 3.0): 0.19
- ε ([2]; Table 3, pH 3.0): 85000 M⁻¹ cm⁻¹
- λem ([2]; Table 3, pH 3.0): 600 nm
- λex ([2]; Table 3, pH 3.0): 500 nm
- absorption of light around 593 nm ([2]; around the maximum absorption wavelength of SiR600): did not absorb light around the maximum absorption wavelength (593 nm) of SiR600
- absorption maximum wavelength [3]: around 500 nm
- fluorescence before and after the reaction with caspase-3 ([3]; probe 2 μM, caspase-3 0.5 μg, 10 hours, 37° C., excitation light 593 nm): scarcely observed before the reaction, but extremely strong fluorescence is observed after the reaction

Compound: Cc1ccccc1C1=C2C=CC(=N)C=C2[Si](C)(C)c2cc(NC(=O)[C@H](N)CC(C)C)ccc21 [Leu-SiR600]
- absorption maximum wavelength [1]: around 500 nm
- fluorescence before and after the reaction with leucine aminopeptidase ([1]; probe 6 μM, leucine aminopeptidase 0.096 unit, 2.5 hours, 37° C., excitation light 593 nm): scarcely observed before the reaction, but extremely strong fluorescence is observed after the reaction

Compound: CC(=O)Nc1ccc2c(c1)[Si](C)(C)C1=CC(=N)C=CC1=C2c1ccccc1C [N-Ac-2-Me SiR600, N-Acetyl-2-Me SiR600]
- pH-dependent change of absorbance [2]: decreased with decrease of pH
- λabs [2]: 505 nm
- λfl [2]: 600 nm
- shift of maximum absorption wavelength compared with 2-Me SiR600 ([2]; acetylation of the amino group at the 3-position): significantly shifted to the shorter wavelength side
